According to US12545708B2, “Peptide for treatment of corona virus infection disease COVID-19 and use thereof” (DAEGU GYEONGBUK INSTITUTE OF SCIENCE AND TECHNOLOGY, priority 2020, dated 2026):

Columns and labels:
RBD = RBD (Severe acute respiratory syndrome coronavirus 2, UniProt P0DTC2); experiment: biochemical; type: binding, SARS-CoV2

## CC[C@H](C)[C@H](NC(=O)[C@H](CC(N)=O)NC(=O)[C@@H](NC(=O)[C@H](CC(N)=O)NC(=O)[C@H](Cc1ccc(O)cc1)NC(=O)[C@@H](NC(=O)[C@H](CC(N)=O)NC(=O)[C@H](CC(=O)O)NC(=O)[C@H](C)NC(=O)[C@H](CC(C)C)NC(=O)[C@H](CCC(N)=O)NC(=O)[C@H](CO)NC(=O)[C@H](CCCCN)NC(=O)[C@@H](N)CCSC)C(C)C)[C@@H](C)O)C(=O)N[C@H](C(=O)N[C@@H](CCCCN)C(=O)N[C@@H](CCC(=O)O)C(=O)N[C@@H](CC(N)=O)C(=O)N[C@H](C(=O)N[C@@H](CCC(N)=O)C(=O)N[C@@H](CC(N)=O)C(=O)N[C@@H](CCSC)C(=O)N[C@@H](CC(N)=O)C(=O)N[C@@H](CCC(=O)O)C(=O)N[C@@H](CCC(=O)O)C(=O)N[C@@H](CCC(N)=O)C(=O)N[C@@H](C)C(=O)N[C@@H](CCCCN)C(=O)N[C@H](C(=O)N[C@@H](Cc1ccccc1)C(=O)N[C@@H](CC(C)C)C(=O)N[C@@H](CC(=O)O)C(=O)N[C@@H](CCCCN)C(=O)N[C@@H](Cc1ccccc1)C(=O)N[C@@H](CC(N)=O)C(=O)N[C@@H](Cc1c[nH]cn1)C(=O)N[C@@H](CCC(=O)O)C(=O)N[C@@H](C)C(=O)N[C@@H](CCC(=O)O)C(=O)N[C@@H](CC(=O)O)C(=O)N[C@@H](CC(C)C)C(=O)N[C@@H](Cc1ccccc1)C(=O)N[C@@H](Cc1ccc(O)cc1)C(=O)N[C@@H](CCC(N)=O)C(=O)N[C@@H](CO)C(=O)N[C@@H](CO)C(=O)NCC(=O)N[C@@H](CC(C)C)C(=O)NCC(=O)N[C@@H](CCCCN)C(=O)NCC(=O)N[C@@H](CC(=O)O)C(=O)N[C@@H](Cc1ccccc1)C(=O)N[C@@H](CCCNC(=N)N)C(=O)O)[C@@H](C)O)C(C)C)[C@@H](C)O [PEP9]
HMC-3 cell line
  change in cell viability: no significant change
  decrease in the cell viability: about 10%
MRC-5 cell line
  change in cell viability: no significant change
RBD
  Kd: 34.5 nM
HepG2 cell line
  change in cell viability: no significant change
HEK293T cell line
  change in cell viability: no significant change
